Assay results published in PubChem BioAssay (NCI).
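How tested: cells in 96-well plates exposed to compound for 48 hours at five concentrations. Definition used: TGI = concentration required for complete inhibition of growth.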

Tests used:
Experiment in all cases: NCI tumour cell line growth inhibition, 48 h
RXF-631 renal = test system: RXF-631 renal
XF 498 CNS = test system: XF 498 CNS
786-0 renal = test system: 786-0 renal
P388 leukemia = test system: P388 leukemia
P388/ADR leukemia = test system: P388/ADR leukemia
SN12K1 renal = test system: SN12K1 renal

SMILES | TGI (XF 498 CNS) | TGI (786-0 renal) | other results
O=C(CC1Sc2ccccc2NC1=O)Nc1ccccc1[N+](=O)[O-] (centres undefined) | > 100 µM | – | TGI (RXF-631 renal): > 100 µM
CCn1cnc2c(=S)nc(N)[nH]c21 | – | > 100 µM | –
CC1NC(=O)C(C)C(c2ccccc2)N(N=O)C1c1ccccc1 (centres undefined) | > 100 µM | – | TGI (P388 leukemia): > 89.2 µM; TGI (P388/ADR leukemia): > 100 µM; TGI (SN12K1 renal): > 100 µM
O=C1OC(c2ccccc2)=N/C1=C\c1ccc([N+](=O)[O-])cc1 | – | > 100 µM | –
O=C(O)Cc1ccc([N+](=O)[O-])cc1[N+](=O)[O-] | – | > 100 µM | –
CON(C)C(=O)C(Cc1ccccc1)NC(=O)OCc1ccccc1 (centres undefined) | > 100 µM | – | –
Cc1ccc(C(=O)OC(C(=O)O)C(OC(=O)c2ccc(C)cc2)C(=O)O)cc1 (centres undefined) (tested in a mixture with another compound) | 10.2 µM | – | TGI (P388 leukemia): 7.53 µM; TGI (P388/ADR leukemia): 11.7 µM; TGI (SN12K1 renal): 8.41 µM
